Experimental data reported in US20140296064A1, “PESTICIDAL METHODS USING SUBSTITUTED 3-PYRIDYL THIAZOLE COMPOUNDS AND DERIVATIVES FOR COMBATING ANIMAL PESTS I” (BASF SE, priority 2011, published 2014).

Experiments:
Type in all cases: in vivo
[1] = test system: Cowpea Aphid (Aphis craccivora); test: Cowpea aphid potted plant spray test; conditions: potted cowpea plants sprayed, population reduction assessed after 24, 72 and 120 hours, read-out: mortality in comparison with untreated controls
Procedure: B.4 Cowpea Aphid (Aphis craccivora)
The active compound was dissolved at the desired concentration in a mixture of 1:1 (vol:vol) distilled water: acetone. The test solution was prepared at the day of use.
Potted cowpea plants colonized with approximately 100-150 aphids of various stages were sprayed after the pest population had been recorded. Population reduction was assessed after 24, 72, and 120 hours.

[2] = test system: Silverleaf Whitefly (bemisia argentifolii); test: Silverleaf whitefly cotton plant spray test; conditions: 72 h, cotton plants sprayed, whitefly adults, assessed 3 days after treatment, read-out: mortality in comparison with untreated controls
From the text: B.5 Silverleaf Whitefly (bemisia argentifolii)
The active compounds were formulated in cyclohexanone as a 10,000 ppm solution supplied in tubes. The tubes were inserted into an automated electrostatic sprayer equipped with an atomizing nozzle and they serve as stock solutions for which lower dilutions are made in 50% acetone: 50% water (v/v). A nonionic surfactant (Kinetic®) was included in the solution at a volume of 0.01% (v/v).
Cotton plants at the cotyledon stage (one plant per pot) were sprayed by an automated electrostatic plant sprayer equipped with an atomizing spray nozzle. The plants were dried in the sprayer fume hood and then removed from the sprayer. Each pot was placed into a plastic cup and about 10 to 12 whitefly adults (approximately 3-5 days old) were introduced. The insects were collected using an aspirator and a nontoxic Tygon® tubing connected to a barrier pipette tip. The tip, containing the collected insects, were then gently inserted into the soil containing the treated plant, allowing insects to crawl out of the tip to reach the foliage for feeding. Cups were covered with a reusable screened lid. Test plants were maintained in a growth room at about 25° C. and about 20-40% relative humidity for 3 days, avoiding direct exposure to fluorescent light (24 hour photoperiod) to prevent trapping of heat inside the cup. Mortality was assessed 3 days after treatment, compared to untreated control plants.

[3] = test system: Cotton aphid (Aphis gossypi); test: Cotton aphid cotyledon dip test; conditions: 120 h, cotton cotyledons dipped, mortality counts after 5 days, read-out: mortality in comparison with untreated controls
From the text: B.3 Cotton aphid (Aphis gossypi)
The active compounds were formulated in 50:50 (vol:vol) acetone: water and 100 ppm Kinetica™ surfactant.
Cotton plants at the cotyledon stage (one plant per pot) were infested by placing a heavily infested leaf from the main colony on top of each cotyledon. The aphids were allowed to transfer to the host plant overnight, and the leaf used to transfer the aphids was removed. The cotyledons were dipped in the test solution and allowed to dry. After 5 days, mortality counts were made.

[4] = test system: Vetch aphid (Megoura viciae); test: Vetch aphid leaf disk spray test (contact or systemic); conditions: foliar, 120 h, sprayed broad bean leaf disks, assessed after 5 days, read-out: mortality in comparison with untreated controls
Procedure: B.1 Vetch aphid (Megoura viciae)
For evaluating control of vetch aphid (Megoura viciae) through contact or systemic means the test unit consisted of 24-well-microtiter plates containing broad bean leaf disks.
The compounds were formulated using a solution containing 75% v/v water and 25% v/v DMSO. Different concentrations of formulated compounds were sprayed onto the leaf disks at 2.5 μl, using a custom built micro atomizer, at two replications. After application, the leaf disks were air-dried and 5-8 adult aphids were placed on the leaf disks inside the microtiter plate wells. The aphids were then allowed to suck on the treated leaf disks and were incubated at about 23±1° C. and about 50±5% relative humidity for 5 days. Aphid mortality and fecundity were then visually assessed.

[5] = test system: Green Peach Aphid (Myzus persicae); test: Green peach aphid artificial diet test (systemic); conditions: 72 h, in aphid diet under artificial membrane, assessed after 3 days, read-out: mortality in comparison with untreated controls
From the text: B.2 Green Peach Aphid (Myzus persicae)
For evaluating control of green peach aphid (Myzus persicae) through systemic means the test unit consisted of 96-well-microtiter plates containing liquid artificial diet under an artificial membrane.
The compounds were formulated using a solution containing 75% v/v water and 25% v/v DMSO. Different concentrations of formulated compounds were pipetted into the aphid diet, using a custom built pipetter, at two replications. After application, 5-8 adult aphids were placed on the artificial membrane inside the microtiter plate wells. The aphids were then allowed to suck on the treated aphid diet and were incubated at about 23±1° C. and about 50±5% relative humidity for 3 days. Aphid mortality and fecundity was then visually assessed.

| SMILES | mortality at 500 ppm [1] [%] | mortality at 500 ppm [2] [%] | mortality at 500 ppm [3] [%] | mortality at 800 ppm [4] [%] | mortality at 500 ppm [5] [%] |
| --- | --- | --- | --- | --- | --- |
| CCN(CC[S+](C)[O-])C(=O)c1sc(-c2cccnc2)nc1C(F)(F)F (centres unmarked) [C.4, 2-Pyridin-3-yl-4-trifluoromethyl-thiazole-5-carboxylic acid ethyl-(2-methanesulfinyl-ethyl)-amide] | ≥ 75 | ≥ 75 |  |  |  |
| CN(C)C(=O)c1sc(-c2cccnc2)nc1Cl [C.11, 4-Chloro-N, N-dimethyl-2-(3-pyridyl)thiazole-5-carboxamide] | ≥ 75 | ≥ 75 | ≥ 75 | ≥ 75 | ≥ 75 |
| CCN(CCS(C)(=O)=O)C(=O)c1sc(-c2cccnc2)nc1C(F)(F)F [C.5, 2-Pyridin-3-yl-4-trifluoromethyl-thiazole-5-carboxylic acid ethyl-(2-methanesulfonyl-ethyl)-amide] | ≥ 75 |  |  |  |  |
| CSCCNC(=O)c1sc(-c2cccnc2)nc1C(F)(F)F [C.2, 2-Pyridin-3-yl-4-trifluoromethyl-thiazole-5-carboxylic acid (2-methylsulfanyl-ethyl)amide] | ≥ 75 |  |  | ≥ 75 | ≥ 75 |
| CCN(C(=O)c1sc(-c2cccnc2)nc1C(F)(F)F)C1C[S+]([O-])C1 (centres unmarked) [C.8, 2-Pyridin-3-yl-4-trifluoromethyl-thiazole-5-carboxylic acid ethyl-(1-oxo-1lambda*4*-thietan-3-yl)-amide] |  | ≥ 75 |  |  |  |
| CCN(CCSC)C(=O)c1sc(-c2cccnc2)nc1C(F)(F)F [C.3, 2-Pyridin-3-yl-4-trifluoromethyl-thiazole-5-carboxylic acid ethyl-(2-methylsulfanyl-ethyl)-amide] | ≥ 75 |  | ≥ 75 |  |  |
| CCN(C(=O)c1sc(-c2cccnc2)nc1C(F)(F)F)C1CSC1 [C.7, 2-Pyridin-3-yl-4-trifluoromethyl-thiazole-5-carboxylic acid ethyl-thietan-3-yl-amide] | ≥ 75 | ≥ 75 |  |  |  |
| O=C(NC1CSC1)c1sc(-c2cccnc2)nc1C(F)(F)F [C.6, 2-Pyridin-3-yl-4-trifluoromethyl-thiazole-5-carboxylic acid thietan-3-ylamide] |  |  |  | ≥ 75 |  |
| CN(C)C(=O)c1sc(-c2cccnc2)nc1C(F)(F)F [C.1, 2-Pyridin-3-yl-4-trifluoromethyl-thiazole-5-carboxylic acid dimethylamide] | ≥ 75 | ≥ 75 |  |  | ≥ 75 |
